Measurements from PubChem BioAssay (NCI).
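Method: 48-hour compound exposure of cells in 96-well plates, five concentrations, linear interpolation of endpoints. GI50 is the concentration that inhibits growth by half. TGI is the concentration that stops growth completely.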

Key:
Assay in all cases: NCI tumour cell line growth inhibition, 48 h
U251 CNS = tested on: U251 CNS
RXF 393 renal = tested on: RXF 393 renal
MCF7 breast = tested on: MCF7 breast
NCI/ADR-RES ovarian = tested on: NCI/ADR-RES ovarian
A498 renal = tested on: A498 renal
NCI-H23 lung = tested on: NCI-H23 lung
KM12 colon = tested on: KM12 colon
HCT-116 colon = tested on: HCT-116 colon
A549 NSCLC = tested on: A549 NSCLC
SR leukemia = tested on: SR leukemia
786-0 renal = tested on: 786-0 renal
SK-OV-3 ovarian = tested on: SK-OV-3 ovarian
SK-MEL-28 melanoma = tested on: SK-MEL-28 melanoma
M14 melanoma = tested on: M14 melanoma
LOX IMVI melanoma = tested on: LOX IMVI melanoma
SK-MEL-5 melanoma = tested on: SK-MEL-5 melanoma
IGROV1 ovarian = tested on: IGROV1 ovarian
DU-145 prostate = tested on: DU-145 prostate
BT-549 breast = tested on: BT-549 breast
HCC-2998 colon = tested on: HCC-2998 colon
HCT-15 colon = tested on: HCT-15 colon
UO-31 renal = tested on: UO-31 renal
SF-539 CNS = tested on: SF-539 CNS
HS 578T breast = tested on: HS 578T breast
SN12C renal = tested on: SN12C renal
OVCAR-8 ovarian = tested on: OVCAR-8 ovarian
SF-295 CNS = tested on: SF-295 CNS
CCRF-CEM leukemia = tested on: CCRF-CEM leukemia
COLO 205 colon = tested on: COLO 205 colon
NCI-H460 lung = tested on: NCI-H460 lung
SW-620 colon = tested on: SW-620 colon
SK-MEL-2 melanoma = tested on: SK-MEL-2 melanoma
NCI-H226 lung = tested on: NCI-H226 lung
MDA-MB-435 = tested on: MDA-MB-435
OVCAR-3 ovarian = tested on: OVCAR-3 ovarian
MALME-3M melanoma = tested on: MALME-3M melanoma
NCI-H522 lung = tested on: NCI-H522 lung
RPMI-8226 leukemia = tested on: RPMI-8226 leukemia
HL-60(TB) leukemia = tested on: HL-60(TB) leukemia
HOP-62 NSCLC = tested on: HOP-62 NSCLC
T-47D breast = tested on: T-47D breast
SNB-75 CNS = tested on: SNB-75 CNS
HT29 colon = tested on: HT29 colon
OVCAR-5 ovarian = tested on: OVCAR-5 ovarian
SNB-19 CNS = tested on: SNB-19 CNS
PC-3 prostate = tested on: PC-3 prostate
MDA-MB-231 breast = tested on: MDA-MB-231 breast
K-562 leukemia = tested on: K-562 leukemia
ACHN renal = tested on: ACHN renal
UACC-62 melanoma = tested on: UACC-62 melanoma
TK-10 renal = tested on: TK-10 renal
SF-268 CNS = tested on: SF-268 CNS
CAKI-1 renal = tested on: CAKI-1 renal
OVCAR-4 ovarian = tested on: OVCAR-4 ovarian
HOP-92 NSCLC = tested on: HOP-92 NSCLC
MOLT-4 leukemia = tested on: MOLT-4 leukemia

Question: What does the source list for `FC(F)(F)c1ccc(-c2cnc(-n3cc(COCCN4CCCCC4)nn3)nc2NC2CCCCCC2)cc1`?
Answer: GI50 (U251 CNS): 3.5 µM; TGI (U251 CNS): 6.87 µM; GI50 (RXF 393 renal): 2.51 µM; TGI (RXF 393 renal): 5.67 µM; GI50 (MCF7 breast): 3.21 µM; TGI (MCF7 breast): 7.4 µM; GI50 (NCI/ADR-RES ovarian): 3.85 µM; TGI (NCI/ADR-RES ovarian): 7.66 µM; GI50 (A498 renal): 3.56 µM; TGI (A498 renal): 7.04 µM; GI50 (NCI-H23 lung): 3.8 µM; TGI (NCI-H23 lung): 7.81 µM; GI50 (KM12 colon): 4.27 µM; TGI (KM12 colon): 8.08 µM; GI50 (HCT-116 colon): 3.32 µM; TGI (HCT-116 colon): 7 µM; GI50 (A549 NSCLC): 4.16 µM; TGI (A549 NSCLC): 8.18 µM; GI50 (SR leukemia): 2.61 µM; TGI (SR leukemia): 7.73 µM; GI50 (786-0 renal): 3.73 µM; TGI (786-0 renal): 7.28 µM; GI50 (SK-OV-3 ovarian): 4.04 µM; TGI (SK-OV-3 ovarian): 7.62 µM; GI50 (SK-MEL-28 melanoma): 3.6 µM; TGI (SK-MEL-28 melanoma): 6.99 µM; GI50 (M14 melanoma): 4.34 µM; TGI (M14 melanoma): 9.01 µM; GI50 (LOX IMVI melanoma): 3.89 µM; TGI (LOX IMVI melanoma): 7.88 µM; GI50 (SK-MEL-5 melanoma): 3.46 µM; TGI (SK-MEL-5 melanoma): 6.74 µM; GI50 (IGROV1 ovarian): 3.9 µM; TGI (IGROV1 ovarian): 10.2 µM; GI50 (DU-145 prostate): 4.25 µM; TGI (DU-145 prostate): 7.94 µM; GI50 (BT-549 breast): 4.33 µM; TGI (BT-549 breast): 8.55 µM; GI50 (HCC-2998 colon): 3.93 µM; TGI (HCC-2998 colon): 7.44 µM; GI50 (HCT-15 colon): 4.02 µM; TGI (HCT-15 colon): 8.66 µM; GI50 (UO-31 renal): 2.63 µM; TGI (UO-31 renal): 5.97 µM; GI50 (SF-539 CNS): 3.89 µM; TGI (SF-539 CNS): 7.42 µM; GI50 (HS 578T breast): 3.91 µM; TGI (HS 578T breast): 10.6 µM; GI50 (SN12C renal): 3.98 µM; TGI (SN12C renal): 7.56 µM; GI50 (OVCAR-8 ovarian): 4.12 µM; TGI (OVCAR-8 ovarian): 8.74 µM; GI50 (SF-295 CNS): 4.85 µM; TGI (SF-295 CNS): 9.85 µM; GI50 (CCRF-CEM leukemia): 4.23 µM; TGI (CCRF-CEM leukemia): 10.7 µM; GI50 (COLO 205 colon): 3.86 µM; TGI (COLO 205 colon): 8.57 µM; GI50 (NCI-H460 lung): 4.57 µM; TGI (NCI-H460 lung): 8.84 µM; GI50 (SW-620 colon): 3.79 µM; TGI (SW-620 colon): 7.95 µM; GI50 (SK-MEL-2 melanoma): 4.42 µM; TGI (SK-MEL-2 melanoma): 8.22 µM; GI50 (NCI-H226 lung): 3.54 µM; TGI (NCI-H226 lung): 7.83 µM; GI50 (MDA-MB-435): 3.74 µM; TGI (MDA-MB-435): 7.76 µM; GI50 (OVCAR-3 ovarian): 3.98 µM; TGI (OVCAR-3 ovarian): 7.48 µM; GI50 (MALME-3M melanoma): 4.24 µM; TGI (MALME-3M melanoma): 8.47 µM; GI50 (NCI-H522 lung): 3.93 µM; TGI (NCI-H522 lung): 7.99 µM; GI50 (RPMI-8226 leukemia): 3.85 µM; TGI (RPMI-8226 leukemia): 9.03 µM; GI50 (HL-60(TB) leukemia): 3.84 µM; TGI (HL-60(TB) leukemia): 8.26 µM; GI50 (HOP-62 NSCLC): 4.15 µM; TGI (HOP-62 NSCLC): 8.64 µM; GI50 (T-47D breast): 4.12 µM; TGI (T-47D breast): 9.21 µM; GI50 (SNB-75 CNS): 2.72 µM; TGI (SNB-75 CNS): 6.4 µM; GI50 (HT29 colon): 1.46 µM; TGI (HT29 colon): 5.08 µM; GI50 (OVCAR-5 ovarian): 4.72 µM; TGI (OVCAR-5 ovarian): 8.79 µM; GI50 (SNB-19 CNS): 3.61 µM; TGI (SNB-19 CNS): 7.11 µM; GI50 (PC-3 prostate): 2.93 µM; TGI (PC-3 prostate): 6.18 µM; GI50 (MDA-MB-231 breast): 3.47 µM; TGI (MDA-MB-231 breast): 6.86 µM; GI50 (K-562 leukemia): 1.75 µM; TGI (K-562 leukemia): 7.21 µM; GI50 (ACHN renal): 4.53 µM; TGI (ACHN renal): 8.39 µM; GI50 (UACC-62 melanoma): 3.88 µM; TGI (UACC-62 melanoma): 7.6 µM; GI50 (TK-10 renal): 4.14 µM; TGI (TK-10 renal): 7.81 µM; GI50 (SF-268 CNS): 3.98 µM; TGI (SF-268 CNS): 7.87 µM; GI50 (CAKI-1 renal): 3.51 µM; TGI (CAKI-1 renal): 7.33 µM; GI50 (OVCAR-4 ovarian): 3.11 µM; TGI (OVCAR-4 ovarian): 6.35 µM; GI50 (HOP-92 NSCLC): 0.523 µM; TGI (HOP-92 NSCLC): 3.37 µM; GI50 (MOLT-4 leukemia): 3.73 µM; TGI (MOLT-4 leukemia): 9.26 µM
